{"source": "PubChem BioAssay AID2060508", "about": "(Molecular Pharmacology Branch, DTP, NCI, 2025);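 also: spheroids exposed to compounds for seven days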;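 as to viability, T/C: 100% = DMSO vehicle control viability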", "test_system": "454973-116-R2-J3-PDC spheroids, viability, % test/control", "assay": "Anticancer human tumor 454973-116-R2-J3-PDC patient-derived pancreatic carcinoma cell line growth inhibition [GQUAD]", "details": "spheroids with HUVEC and MSC; for IC50: curve of first compound; for viability, T/C: stronger effect = lower value", "procedure,_shortened": "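Tumor cells were grown as complex spheroids with HUVEC endothelial cells and mesenchymal stem cells as stroma. G-quadruplex stabilizers were combined with targeted agents over half-log dilutions from near the clinical Cmax, or from 10 microM.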", "key": {"[1]": {"details": "second compound 0.0316 µM, first compound 0.000999 µM"}, "[2]": {"details": "second compound 0.0316 µM, first compound 0.00316 µM"}, "[3]": {"details": "second compound 0.0316 µM, first compound 0.00999 µM"}, "[4]": {"details": "second compound 0.0316 µM, first compound 0.0316 µM"}, "[5]": {"details": "second compound 0.0316 µM, first compound 0.0999 µM"}, "[6]": {"details": "second compound 0.0316 µM, first compound 0.316 µM"}, "[7]": {"details": "second compound 0.1 µM, first compound 0.000999 µM"}, "[8]": {"details": "second compound 0.1 µM, first compound 0.00316 µM"}, "[9]": {"details": "second compound 0.1 µM, first compound 0.00999 µM"}, "[10]": {"details": "second compound 0.1 µM, first compound 0.0316 µM"}, "[11]": {"details": "second compound 0.1 µM, first compound 0.0999 µM"}, "[12]": {"details": "second compound 0.1 µM, first compound 0.316 µM"}, "[13]": {"details": "second compound 0.316 µM, first compound 0.000999 µM"}, "[14]": {"details": "second compound 0.316 µM, first compound 0.00316 µM"}, "[15]": {"details": "second compound 0.316 µM, first compound 0.00999 µM"}, "[16]": {"details": "second compound 0.316 µM, first compound 0.0316 µM"}, "[17]": {"details": "second compound 0.316 µM, first compound 0.0999 µM"}, "[18]": {"details": "second compound 0.316 µM, first compound 0.316 µM"}, "[19]": {"details": "second compound 1 µM, first compound 0.000999 µM"}, "[20]": {"details": "second compound 1 µM, first compound 0.00316 µM"}, "[21]": {"details": "second compound 1 µM, first compound 0.00999 µM"}, "[22]": {"details": "second compound 1 µM, first compound 0.0316 µM"}, "[23]": {"details": "second compound 1 µM, first compound 0.0999 µM"}, "[24]": {"details": "second compound 1 µM, first compound 0.316 µM"}, "[25]": {"details": "second compound 3.16 µM, first compound 0.000999 µM"}, "[26]": {"details": "second compound 3.16 µM, first compound 0.00316 µM"}, "[27]": {"details": "second compound 3.16 µM, first compound 0.00999 µM"}, "[28]": {"details": "second compound 3.16 µM, first compound 0.0316 µM"}, "[29]": {"details": "second compound 3.16 µM, first compound 0.0999 µM"}, "[30]": {"details": "second compound 3.16 µM, first compound 0.316 µM"}, "[31]": {"details": "second compound 10 µM, first compound 0.000999 µM"}, "[32]": {"details": "second compound 10 µM, first compound 0.00316 µM"}, "[33]": {"details": "second compound 10 µM, first compound 0.00999 µM"}, "[34]": {"details": "second compound 10 µM, first compound 0.0316 µM"}, "[35]": {"details": "second compound 10 µM, first compound 0.0999 µM"}, "[36]": {"details": "second compound 10 µM, first compound 0.316 µM"}}}
{"smiles": "CC[C@@]1(O)C(=O)OCc2c1cc1n(c2=O)Cc2cc3c(CN(C)C)c(O)ccc3nc2-1", "note": "+ Cc1cnc(CNC(=O)c2c(=O)c3ccc(N4CCCN(C)CC4)nc3n3c2sc2ccccc23)cn1", "values": [{"measurement": "IC50", "setting": "second compound 0.0316 µM", "value": 29.5, "unit": "nM"}, {"measurement": "IC50", "setting": "second compound 0.1 µM", "value": 20.4, "unit": "nM"}, {"measurement": "IC50", "setting": "second compound 0.316 µM", "value": 17.5, "unit": "nM"}, {"measurement": "IC50", "setting": "second compound 1 µM", "value": 24.4, "unit": "nM"}, {"measurement": "IC50", "setting": "second compound 3.16 µM", "value": 189, "unit": "nM"}, {"measurement": "IC50", "setting": "second compound 10 µM", "value": "< 0.999", "unit": "nM"}, {"measurement": "viability, T/C", "setting": "[1]", "value": 104, "unit": "%"}, {"measurement": "viability, T/C", "setting": "[2]", "value": 95.8, "unit": "%"}, {"measurement": "viability, T/C", "setting": "[3]", "value": 84.9, "unit": "%"}, {"measurement": "viability, T/C", "setting": "[4]", "value": 49, "unit": "%"}, {"measurement": "viability, T/C", "setting": "[5]", "value": 21.9, "unit": "%"}, {"measurement": "viability, T/C", "setting": "[6]", "value": 23.7, "unit": "%"}, {"measurement": "viability, T/C", "setting": "[7]", "value": 90.8, "unit": "%"}, {"measurement": "viability, T/C", "setting": "[8]", "value": 90.2, "unit": "%"}, {"measurement": "viability, T/C", "setting": "[9]", "value": 77, "unit": "%"}, {"measurement": "viability, T/C", "setting": "[10]", "value": 33.4, "unit": "%"}, {"measurement": "viability, T/C", "setting": "[11]", "value": 24.8, "unit": "%"}, {"measurement": "viability, T/C", "setting": "[12]", "value": 23.1, "unit": "%"}, {"measurement": "viability, T/C", "setting": "[13]", "value": 79.9, "unit": "%"}, {"measurement": "viability, T/C", "setting": "[14]", "value": 69.1, "unit": "%"}, {"measurement": "viability, T/C", "setting": "[15]", "value": 55.6, "unit": "%"}, {"measurement": "viability, T/C", "setting": "[16]", "value": 43.1, "unit": "%"}, {"measurement": "viability, T/C", "setting": "[17]", "value": 39.2, "unit": "%"}, {"measurement": "viability, T/C", "setting": "[18]", "value": 32.9, "unit": "%"}, {"measurement": "viability, T/C", "setting": "[19]", "value": 67.1, "unit": "%"}, {"measurement": "viability, T/C", "setting": "[20]", "value": 67.6, "unit": "%"}, {"measurement": "viability, T/C", "setting": "[21]", "value": 54.9, "unit": "%"}, {"measurement": "viability, T/C", "setting": "[22]", "value": 48.4, "unit": "%"}, {"measurement": "viability, T/C", "setting": "[23]", "value": 50, "unit": "%"}, {"measurement": "viability, T/C", "setting": "[24]", "value": 47.4, "unit": "%"}, {"measurement": "viability, T/C", "setting": "[25]", "value": 61.2, "unit": "%"}, {"measurement": "viability, T/C", "setting": "[26]", "value": 63.4, "unit": "%"}, {"measurement": "viability, T/C", "setting": "[27]", "value": 60.2, "unit": "%"}, {"measurement": "viability, T/C", "setting": "[28]", "value": 49.6, "unit": "%"}, {"measurement": "viability, T/C", "setting": "[29]", "value": 61.7, "unit": "%"}, {"measurement": "viability, T/C", "setting": "[30]", "value": 42.7, "unit": "%"}, {"measurement": "viability, T/C", "setting": "[31]", "value": 19.2, "unit": "%"}, {"measurement": "viability, T/C", "setting": "[32]", "value": 17.5, "unit": "%"}, {"measurement": "viability, T/C", "setting": "[33]", "value": 57, "unit": "%"}, {"measurement": "viability, T/C", "setting": "[34]", "value": 45.9, "unit": "%"}, {"measurement": "viability, T/C", "setting": "[35]", "value": 0.31, "unit": "%"}, {"measurement": "viability, T/C", "setting": "[36]", "value": 0.23, "unit": "%"}]}
{"smiles": "CCc1c2c(nc3ccc(O)cc13)-c1cc3c(c(=O)n1C2)COC(=O)[C@]3(O)CC", "note": "+ Cc1cnc(CNC(=O)c2c(=O)c3ccc(N4CCCN(C)CC4)nc3n3c2sc2ccccc23)cn1", "values": [{"measurement": "IC50", "setting": "second compound 0.0316 µM", "value": "< 0.999", "unit": "nM"}, {"measurement": "IC50", "setting": "second compound 0.1 µM", "value": "< 0.999", "unit": "nM"}, {"measurement": "IC50", "setting": "second compound 0.316 µM", "value": "< 0.999", "unit": "nM"}, {"measurement": "IC50", "setting": "second compound 1 µM", "value": 1.45, "unit": "nM"}, {"measurement": "IC50", "setting": "second compound 3.16 µM", "value": 4.04, "unit": "nM"}, {"measurement": "IC50", "setting": "second compound 10 µM", "value": "< 0.999", "unit": "nM"}, {"measurement": "viability, T/C", "setting": "[1]", "value": 45.7, "unit": "%"}, {"measurement": "viability, T/C", "setting": "[2]", "value": 24.6, "unit": "%"}, {"measurement": "viability, T/C", "setting": "[3]", "value": 22.9, "unit": "%"}, {"measurement": "viability, T/C", "setting": "[4]", "value": 12.3, "unit": "%"}, {"measurement": "viability, T/C", "setting": "[5]", "value": 7.38, "unit": "%"}, {"measurement": "viability, T/C", "setting": "[6]", "value": 4.15, "unit": "%"}, {"measurement": "viability, T/C", "setting": "[7]", "value": 36.2, "unit": "%"}, {"measurement": "viability, T/C", "setting": "[8]", "value": 24.1, "unit": "%"}, {"measurement": "viability, T/C", "setting": "[9]", "value": 22.9, "unit": "%"}, {"measurement": "viability, T/C", "setting": "[10]", "value": 14.8, "unit": "%"}, {"measurement": "viability, T/C", "setting": "[11]", "value": 7.21, "unit": "%"}, {"measurement": "viability, T/C", "setting": "[12]", "value": 4.8, "unit": "%"}, {"measurement": "viability, T/C", "setting": "[13]", "value": 37.7, "unit": "%"}, {"measurement": "viability, T/C", "setting": "[14]", "value": 34.2, "unit": "%"}, {"measurement": "viability, T/C", "setting": "[15]", "value": 33.7, "unit": "%"}, {"measurement": "viability, T/C", "setting": "[16]", "value": 15.9, "unit": "%"}, {"measurement": "viability, T/C", "setting": "[17]", "value": 7.83, "unit": "%"}, {"measurement": "viability, T/C", "setting": "[18]", "value": 4.86, "unit": "%"}, {"measurement": "viability, T/C", "setting": "[19]", "value": 47.1, "unit": "%"}, {"measurement": "viability, T/C", "setting": "[20]", "value": 54.1, "unit": "%"}, {"measurement": "viability, T/C", "setting": "[21]", "value": 36.5, "unit": "%"}, {"measurement": "viability, T/C", "setting": "[22]", "value": 22.2, "unit": "%"}, {"measurement": "viability, T/C", "setting": "[23]", "value": 7.17, "unit": "%"}, {"measurement": "viability, T/C", "setting": "[24]", "value": 2.75, "unit": "%"}, {"measurement": "viability, T/C", "setting": "[25]", "value": 59.7, "unit": "%"}, {"measurement": "viability, T/C", "setting": "[26]", "value": 51.9, "unit": "%"}, {"measurement": "viability, T/C", "setting": "[27]", "value": 40, "unit": "%"}, {"measurement": "viability, T/C", "setting": "[28]", "value": 26.1, "unit": "%"}, {"measurement": "viability, T/C", "setting": "[29]", "value": 7.65, "unit": "%"}, {"measurement": "viability, T/C", "setting": "[30]", "value": 0.55, "unit": "%"}, {"measurement": "viability, T/C", "setting": "[31]", "value": 16.4, "unit": "%"}, {"measurement": "viability, T/C", "setting": "[32]", "value": 16.7, "unit": "%"}, {"measurement": "viability, T/C", "setting": "[33]", "value": 38.7, "unit": "%"}, {"measurement": "viability, T/C", "setting": "[34]", "value": 0.26, "unit": "%"}, {"measurement": "viability, T/C", "setting": "[35]", "value": 0.24, "unit": "%"}, {"measurement": "viability, T/C", "setting": "[36]", "value": 0.7, "unit": "%"}]}
